Publication PMC7725003, “Systematically Studying the Optimal Amino Acid Distribution Patterns of the Amphiphilic Structure by Using the Ultrashort Amphiphiles” (Frontiers in Microbiology, 2020)
Where two headings read alike, the source gives them in different places. Where no end group is shown, it is not given here.

Assays:
E. coli 25922 [1] = type: cell-based, Escherichia coli; conditions: 25922, 24 h
Procedure, shortened: (§1)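 Broth microdilution adapted from NCCLS. Peptide series in 0.2% BSA meets an equal volume of MHB culture at 0.5–1 × 10^6 CFU mL^–1; 24 h incubation at 37°C; MIC read as 95% growth inhibition at 492 nm.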

E. coli O78 = type: cell-based, Escherichia coli; conditions: O78, 24 h
Procedure, shortened: as §1

E. coli UB1005 = type: cell-based, Escherichia coli; conditions: UB1005, 24 h
Procedure, shortened: as §1

P. aeruginosa 27853 = type: cell-based, Pseudomonas aeruginosa; conditions: 27853, 24 h
Procedure, shortened: as §1

Gram-negative bacteria = conditions: for TI, Gram-negative bacteria: therapeutic index TI = MHC/GM MIC
Procedure, shortened: (§2)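 MIC is the lowest peptide concentration giving 95% growth inhibition, read at 492 nm after 24 h incubation at 37°C. Peptides were serially diluted in 0.2% BSA and added to mid-logarithmic cells at 0.5–1 × 10^6 CFU mL^–1 in MHB, following a modified NCCLS method, with more than 3 repeats.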

Gram-positive bacteria = conditions: for TI, Gram-positive bacteria: therapeutic index TI = MHC/GM MIC
Procedure, shortened: as §2

S. epidermidis 12228 = type: cell-based, Staphylococcus epidermidis; conditions: 12228, 24 h
Procedure, shortened: as §1

MRSA 43300 = type: cell-based, methicillin-resistant S. aureus
Procedure, shortened: as §1

B. subtilis 63501 = type: cell-based, Bacillus subtilis; conditions: 63501, 24 h
Procedure, shortened: as §1

E. faecalis 29212 = type: cell-based, Enterococcus faecalis; conditions: 29212, 24 h
Procedure, shortened: as §1

[2] = tested on: Listeria monocytogenes CGMCC 1.1075; type: cell-based; conditions: CGMCC 1.1075, 24 h
Procedure, shortened: as §1

[3] = tested on: all of the tested bacterial strains; assay: Geometric mean of MICs, all tested bacterial strains; type: cell-based; conditions: for GM, All: geometric mean of MICs across all tested strains; for TI, All: therapeutic index TI = MHC/GM MIC
Procedure, shortened: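 Per strain, MIC came from absorbance at 492 nm after 24 h at 37°C (≥95% inhibition), using mid-log inoculum of 0.5–1 × 10^6 CFU mL^–1 in MHB and peptide diluted in 0.2% BSA. MBC (>99.9% killed) came from overnight agar plating, and values are geometric means across strains.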

E. coli ATCC 25922 = assay: Salt sensitivity assay (MIC); type: cell-based, Escherichia coli; conditions: for MIC, FeCl3: 4 μM FeCl3; for MIC, NH4Cl: 6 μM NH4Cl; for MIC, ZnCl2: 8 μM ZnCl2; for MIC, MgCl2: 1 mM MgCl2; for MIC, CaCl2: 2 mM CaCl2; for MIC, KCl: 4.5 mM KCl; for MIC, NaCl: 150 mM NaCl; for MIC, Control: no added salt, three independent assays
Procedure, shortened: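 Peptides diluted serially in 0.2% BSA solution were combined at identical volumes with mid-logarithmic E. coli ATCC 25922 in MHB (0.5–1 × 10^6 CFU mL^–1) in 96-well plates, with or without a physiological salt. Plates were incubated for 24 h at 37°C. MIC was the lowest concentration inhibiting 95% of growth, measured as absorbance at 492 nm on a microplate reader.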

S. aureus 29213 [4] = assay: Salt sensitivity assay (MIC); type: cell-based, Staphylococcus aureus; conditions: for MIC, FeCl3: 4 μM FeCl3; for MIC, NH4Cl: 6 μM NH4Cl; for MIC, ZnCl2: 8 μM ZnCl2; for MIC, MgCl2: 1 mM MgCl2; for MIC, CaCl2: 2 mM CaCl2; for MIC, KCl: 4.5 mM KCl; for MIC, NaCl: 150 mM NaCl; for MIC, Control: no added salt, three independent assays
Procedure, shortened: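 Physiological salts (150 mM NaCl, 4.5 mM KCl, 6 μM NH4Cl, 8 μM ZnCl2, 1 mM MgCl2, 2mM CaCl2, 4 μM FeCl3) added to MHB. Bacteria at 0.5–1 × 10^6 CFU/mL exposed to serially diluted peptides for 24 h at 37°C. MIC read as lowest peptide concentration giving 95% growth inhibition by absorbance at 492 nm.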

E. coli 25922 [5] = assay: Time-kill kinetics; type: cell-based, Escherichia coli; conditions: 1 × MIC concentration (Figure 5 legend: 1× MBC); mean of three independent experiments
Excerpt: (§3) The kinetics of the sterilization activity of the peptide was further evaluated. […] The results of the kinetic were the mean values of three independent experiments, and each independent experiment contained three technical replicates.

S. aureus 29213 [6] = assay: Time-kill kinetics; type: cell-based, Staphylococcus aureus; conditions: 1 × MIC concentration (Figure 5 legend: 1× MBC); mean of three independent experiments
Excerpt: as §3

P. aeruginosa ATCC 27853 = type: cell-based, Pseudomonas aeruginosa; conditions: after 30 sequential passages in sub-MBC concentrations
Method: Finally, P. aeruginosa ATCC 27853 was used as the model of the drug resistance study. […] The MBC values of the drugs against every two passage’s cells were tested. As a control, MBCs were also tested using cells that were serially passaged in fresh MHB without drugs. The assay was conducted independently in triplicate with three biological replicates.

[7] = geometric mean of MICs (Table 3)

Substance: RLRLRLRLL-NH2 [L5]
- MBC (E. coli 25922 [1]): 4 µM
- MIC (E. coli 25922 [1]): 2 µM
- MBC (E. coli O78): 4 µM
- MIC (E. coli O78): 2 µM
- MBC (E. coli UB1005): 8 µM
- MIC (E. coli UB1005): 4 µM
- MBC (P. aeruginosa 27853): 16 µM
- MIC (P. aeruginosa 27853): 8 µM
- GM MIC (Gram-negative bacteria; geometric mean of MICs, 9 Gram-negative strains (Table 2)): 3.17 µM
- TI, Gram-negative bacteria (Gram-negative bacteria): 80.76
- GM MIC (Gram-positive bacteria; geometric mean of MICs, 7 Gram-positive strains (Table 2)): 5.94 µM
- TI, Gram-positive bacteria (Gram-positive bacteria): 43.10
- MBC (S. epidermidis 12228): 16 µM
- MIC (S. epidermidis 12228): 8 µM
- MIC (MRSA 43300; MHB, 24 h 37°C, 95% growth inhibition): 8 µM
- MBC (MRSA 43300; value in brackets, >99.9% of cells killed): 16 µM
- MBC (B. subtilis 63501): 2 µM
- MIC (B. subtilis 63501): 1 µM
- MBC (E. faecalis 29212): 32 µM
- MIC (E. faecalis 29212): 16 µM
- MBC [2]: 8 µM
- MIC [2]: 4 µM
- GM, All [3]: 4.18 µM
- TI, All [3]: 61.24
- MIC, FeCl3 (E. coli ATCC 25922): 0.5 µM
- MIC, NH4Cl (E. coli ATCC 25922): 0.5 µM
- MIC, ZnCl2 (E. coli ATCC 25922): 0.5 µM
- MIC, MgCl2 (E. coli ATCC 25922): 0.5 µM
- MIC, CaCl2 (E. coli ATCC 25922): 2 µM
- MIC, KCl (E. coli ATCC 25922): 0.5 µM
- MIC, NaCl (E. coli ATCC 25922): 4 µM
- MIC, Control (E. coli ATCC 25922): 2 µM
- MIC, FeCl3 (S. aureus 29213 [4]): 8 µM
- MIC, NH4Cl (S. aureus 29213 [4]): 8 µM
- MIC, ZnCl2 (S. aureus 29213 [4]): 8 µM
- MIC, MgCl2 (S. aureus 29213 [4]): 8 µM
- MIC, CaCl2 (S. aureus 29213 [4]): 16 µM
- MIC, KCl (S. aureus 29213 [4]): 8 µM
- MIC, NaCl (S. aureus 29213 [4]): 64 µM
- MIC, Control (S. aureus 29213 [4]): 8 µM
- time to obliterate the growth of 99.99% of bacteria (E. coli 25922 [5]): ≤ 3 min
- time to clear off the growth of 99.99% of bacteria (S. aureus 29213 [6]): ≤ 0.08 min
- resistance development (P. aeruginosa ATCC 27853): minimal

Substance: RWRWRWRWW-NH2 [W5]
- MBC (E. coli 25922 [1]): 4 µM
- MIC (E. coli 25922 [1]): 2 µM
- MBC (E. coli O78): 8 µM
- MIC (E. coli O78): 4 µM
- MBC (E. coli UB1005): 4 µM
- MIC (E. coli UB1005): 2 µM
- MBC (P. aeruginosa 27853): 8 µM
- MIC (P. aeruginosa 27853): 4 µM
- GM, Gram-negative bacteria (Gram-negative bacteria; [7]): 2.72 µM
- TI, Gram-negative bacteria (Gram-negative bacteria): 94.12
- GM, Gram-positive bacteria (Gram-positive bacteria; [7]): 2.00 µM
- TI, Gram-positive bacteria (Gram-positive bacteria): 128.00
- MBC (S. epidermidis 12228): 4 µM
- MIC (S. epidermidis 12228): 2 µM
- MBC (MRSA 43300; 43300, 24 h): 4 µM
- MIC (MRSA 43300; 43300, 24 h): 2 µM
- MBC (B. subtilis 63501): 2 µM
- MIC (B. subtilis 63501): 1 µM
- MBC (E. faecalis 29212): 8 µM
- MIC (E. faecalis 29212): 4 µM
- MBC [2]: 4 µM
- MIC [2]: 2 µM
- GM, All [3]: 2.38 µM
- TI, All [3]: 107.56
- MIC, FeCl3 (E. coli ATCC 25922): 4 µM
- MIC, NH4Cl (E. coli ATCC 25922): 4 µM
- MIC, ZnCl2 (E. coli ATCC 25922): 4 µM
- MIC, MgCl2 (E. coli ATCC 25922): 2 µM
- MIC, CaCl2 (E. coli ATCC 25922): 4 µM
- MIC, KCl (E. coli ATCC 25922): 4 µM
- MIC, NaCl (E. coli ATCC 25922): 4 µM
- MIC, Control (E. coli ATCC 25922): 2 µM
- MIC, FeCl3 (S. aureus 29213 [4]): 1 µM
- MIC, NH4Cl (S. aureus 29213 [4]): 2 µM
- MIC, ZnCl2 (S. aureus 29213 [4]): 2 µM
- MIC, MgCl2 (S. aureus 29213 [4]): 4 µM
- MIC, CaCl2 (S. aureus 29213 [4]): 2 µM
- MIC, KCl (S. aureus 29213 [4]): 4 µM
- MIC, NaCl (S. aureus 29213 [4]): 2 µM
- MIC, Control (S. aureus 29213 [4]): 2 µM
- time to obliterate the growth of 99.99% of bacteria (E. coli 25922 [5]): ≤ 0.25 min
- time to clear off the growth of 99.99% of bacteria (S. aureus 29213 [6]): ≤ 3 min
- resistance development (P. aeruginosa ATCC 27853): minimal
